In patent US20240295567A1, “HYPOXIA BIOMARKER AND USE THEREOF” (Kyoto University, priority 2021, published 2024):

Assays:
[1] = test system: human prostate cancer-derived cell line DU145; test: Viable cell quantification (Cell Count Reagent SF) after gamma ray irradiation with or without recombinant SPINK1 and anti-SPINK1 antibody; format: cell-based; settings: recombinant SPINK1 purified protein for 24 hours, 0 or 4 Gy gamma rays, 3 further days, FIG. 43
Procedure: Human prostate cancer-derived cell line DU145 was seeded into 96-well cell culture plates (4×10^2 cells per well in a 96-well plate when the dose of the subsequent irradiation is 0 Gy; and 1.2×10^3 cells per well when the dose is 4 Gy) and cultured in a CO2 incubator under a normal oxygen concentration overnight. Thereafter, the cells were cultured in serum-free medium for another 24 hours and then cultured in the presence or absence of recombinant SPINK1 purified protein and in the presence or absence of anti-SPINK1 antibody under normal oxygen conditions for 24 hours. The cells were then irradiated with 0 Gy or 4 Gy gamma rays and cultured under normal oxygen conditions for an additional 3 days. Viable cells were then quantified with Cell Count Reagent SF (produced by Nacalai Tesque, Inc., Catalog #07553-44).

[2] = test system: human prostate cancer-derived cell line DU145; test: Colony formation test after gamma ray irradiation with or without recombinant SPINK1 protein; format: cell-based; settings: rSPINK1 100 ng/ml for 24 hours, 0, 2, 4 or 6 Gy gamma rays, cultured 14 days, FIG. 41
Procedure: Human prostate cancer-derived cell line DU145 was cultured in serum-free medium under normal oxygen (20%) conditions for 24 hours. The medium was then replaced with normal medium (containing 5% serum) containing a recombinant SPINK1 protein at a final concentration of 100 ng/ml or with normal medium not containing the recombinant SPINK1 protein. The cells were cultured under normal oxygen conditions for 24 hours. The cells were then irradiated with 0, 2, 4, or 6 Gy gamma rays and cultured for 14 days. A colony formation test was then performed.

With “recombinant SPINK1 protein: recombinant SPINK1 (serine protease inhibitor Kazal type I) protein added to culture medium (DSLGREAKCYNELNGCTKIYDPVCGTDGNTYPNECVLCFENRKRQTSILIQKSGPC; UniProt P00995 24-79, looked up)” the “radiation resistance of the cells (viable cells)” value [1] was “radiation resistance of the cells was induced” and the “radiation resistance of the cells (colony formation)” value [2] was “radiation resistance of the cells is induced”.
